Experimental data as given in the NIST ThermoML archive (doi:10.1016/j.fluid.2012.11.007).
Where “and” joins values, the source holds several entries; their conditions need not be identical. Identical values can stand only once. Numbers after ± are expanded uncertainties.

Columns and labels:
[1] = Crystal; DTA
[2] = Molar enthalpy of transition or fusion; settings: Crystal; DSC

| SMILES | Normal melting temperature [1] [°C] | Molar enthalpy of transition or fusion [2] |
| --- | --- | --- |
| CCCCn1cc[n+](C)c1.[Cl-] [1-butyl-3-methylimidazolium chloride] | 69.80 ± 0.5 | 6.1 kcal/mol and 6.02 kcal/mol |
| CCn1cc[n+](C)c1.[Cl-] [1-ethyl-3-methylimidazolium chloride] | 88.60 ± 0.5 | 3.67 ± 0.127 kcal/mol |
